Measured values: patent US20180318196A1, “COMPOSITION FOR PROTECTING THE SKIN AGAINST THE EFFECTS OF POLLUTION AND USE THEREOF” (LUBRIZOL ADVANCED MATERIALS, INC., priority 2015, published 2018)
Where two headings read alike, the source gives them in different places.

Tested on: Normal Human Epidermal Keratinocytes from adult (NHEK)
Experiment: Protection from damage induced by Urban Dust, MTT cell viability assay
Format: cell-based
Protocol: The capacity of protecting skin cell cultures from damage induced by Urban Dust (UD) is evaluated. The UD used is particulate matter (PMs, one of the major air pollutants with effects on the skin) collected in an urban area, Washington DC in 1976 and 1977, with an average particle size of 10.5 μm that contain polycyclic aromatic hydrocarbons (PAHs), polychlorinated biphenyl (PCBs), nitro-PAHs, chlorinated pesticides, dioxins and heavy metals: Damage is generated by the addition of UD to the culture medium and the protection effect from damage of the tested compounds is measured by a cell viability assay.
The viability is evaluated by MTT (3-[4,5-dimethylthiazol-2-yl]-2,5 diphenyl tetrazolium bromide), an absorbance-based cell viability method. Live cells present mitochondrial dehydrogenase activity that reduces the dye MTT to an insoluble blue colored product easily detected by absorbance, reflecting viable cells. […]
Then, cellular viability is evaluated. […] Then, plates are shaken for 5 minutes at room temperature protected from light and absorbance read at 570 nm with wavelength correction at 630 nm, using a Microplate Absorbance Reader (Clariostar®,BMG LabTech).
The percentage of cell viability for each condition is calculated with respect to control without pollutants (cells treated with medium alone and not treated with UD). […]

COc1cc2c(cc1O)CCC(C)(C)O2 [LPCH, 7-methoxy-2,2-dimethylchroman-6-ol]
viability at 50 µg/mL (read-out: Relative Cell Viability with Respect To Control without pollutants (%) (MEAN ± SEM), 50 μg/mL LPCH + 50 μg/mL UD): 85.8 ± 3.68% | viability at 50 µg/mL (read-out: Relative Cell Viability with Respect To Control without pollutants (%) (MEAN ± SEM), 50 μg/mL LPCH + 100 μg/mL UD): 79 ± 3.21%
